# Measurements published in PubChem BioAssay (NCI).
#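 Cells were grown in 96-well plates and exposed to each compound for 48 hours at five concentrations; endpoints were interpolated linearly between bracketing concentrations, or set to the highest concentration if not reached. At the GI50, growth is halved. At the TGI there is no net growth.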
# Columns and labels:
# Test in all cases: NCI-60 cell line screen, 48 h
# NCI-H23 lung = tested on: NCI-H23 lung
# OVCAR-5 ovarian = tested on: OVCAR-5 ovarian
# SNB-19 CNS = tested on: SNB-19 CNS
# HS 578T breast = tested on: HS 578T breast
# RXF 393 renal = tested on: RXF 393 renal
# OVCAR-4 ovarian = tested on: OVCAR-4 ovarian
# UACC-257 melanoma = tested on: UACC-257 melanoma
# LOX IMVI melanoma = tested on: LOX IMVI melanoma
# SK-MEL-5 melanoma = tested on: SK-MEL-5 melanoma
# HT29 colon = tested on: HT29 colon
# MDA-MB-435 = tested on: MDA-MB-435
# SR leukemia = tested on: SR leukemia
# NCI-H522 lung = tested on: NCI-H522 lung
# KM12 colon = tested on: KM12 colon
# SF-295 CNS = tested on: SF-295 CNS
# OVCAR-8 ovarian = tested on: OVCAR-8 ovarian
# SNB-75 CNS = tested on: SNB-75 CNS
# SW-620 colon = tested on: SW-620 colon
# 786-0 renal = tested on: 786-0 renal
# SF-268 CNS = tested on: SF-268 CNS
# A549 NSCLC = tested on: A549 NSCLC
# CCRF-CEM leukemia = tested on: CCRF-CEM leukemia
# DU-145 prostate = tested on: DU-145 prostate
# HCC-2998 colon = tested on: HCC-2998 colon
# TK-10 renal = tested on: TK-10 renal
# NCI-H460 lung = tested on: NCI-H460 lung
# BT-549 breast = tested on: BT-549 breast
# U251 CNS = tested on: U251 CNS
# HCT-15 colon = tested on: HCT-15 colon
smiles,measurement,setting,value
COc1cc(/C=N/Nc2ncnc3[nH]ncc23)ccc1O,GI50,NCI-H23 lung,> 21.7 µM
same,TGI,NCI-H23 lung,> 25 µM
same,GI50,OVCAR-5 ovarian,> 19.4 µM
same,TGI,OVCAR-5 ovarian,> 25 µM
same,GI50,SNB-19 CNS,> 25 µM
same,TGI,SNB-19 CNS,> 25 µM
same,GI50,HS 578T breast,6.53 µM
same,TGI,HS 578T breast,> 20.5 µM
same,GI50,RXF 393 renal,5.24 µM
same,TGI,RXF 393 renal,> 18.9 µM
same,GI50,OVCAR-4 ovarian,> 25 µM
same,TGI,OVCAR-4 ovarian,> 25 µM
same,GI50,UACC-257 melanoma,> 21.8 µM
same,TGI,UACC-257 melanoma,> 25 µM
same,GI50,LOX IMVI melanoma,9.26 µM
same,TGI,LOX IMVI melanoma,> 25 µM
same,GI50,SK-MEL-5 melanoma,17.5 µM
same,TGI,SK-MEL-5 melanoma,> 25 µM
same,GI50,HT29 colon,12.6 µM
same,TGI,HT29 colon,> 25 µM
same,GI50,MDA-MB-435,7.95 µM
same,TGI,MDA-MB-435,> 25 µM
same,GI50,SR leukemia,13.1 µM
same,TGI,SR leukemia,> 25 µM
same,GI50,NCI-H522 lung,11 µM
same,TGI,NCI-H522 lung,> 25 µM
same,GI50,KM12 colon,12.6 µM
same,TGI,KM12 colon,> 25 µM
same,GI50,SF-295 CNS,18.6 µM
same,TGI,SF-295 CNS,> 25 µM
same,GI50,OVCAR-8 ovarian,> 25 µM
same,TGI,OVCAR-8 ovarian,> 25 µM
same,GI50,SNB-75 CNS,4.83 µM
same,TGI,SNB-75 CNS,> 16.6 µM
same,GI50,SW-620 colon,> 25 µM
same,TGI,SW-620 colon,> 25 µM
same,GI50,786-0 renal,11.8 µM
same,TGI,786-0 renal,> 25 µM
same,GI50,SF-268 CNS,21.4 µM
same,TGI,SF-268 CNS,> 25 µM
same,GI50,A549 NSCLC,> 25 µM
same,TGI,A549 NSCLC,> 25 µM
same,GI50,CCRF-CEM leukemia,14.8 µM
same,TGI,CCRF-CEM leukemia,> 25 µM
same,GI50,DU-145 prostate,> 23.9 µM
same,TGI,DU-145 prostate,> 25 µM
same,GI50,HCC-2998 colon,> 25 µM
same,TGI,HCC-2998 colon,> 25 µM
same,GI50,TK-10 renal,9.15 µM
same,TGI,TK-10 renal,> 22.1 µM
same,GI50,NCI-H460 lung,24.7 µM
same,TGI,NCI-H460 lung,> 25 µM
same,GI50,BT-549 breast,> 23.6 µM
same,TGI,BT-549 breast,> 25 µM
same,GI50,U251 CNS,24.7 µM
same,TGI,U251 CNS,> 25 µM
same,GI50,HCT-15 colon,24.6 µM
same,TGI,HCT-15 colon,> 25 µM
